From US12440529B2, “Topical Croton lechleri compositions and their use in the treatment of a bacterial colonization or primary or secondary bacterial infection of an underlying skin disorder” (ALPHYN BIOLOGICS, INC., priority 2020, dated 2025)
≈ marks a conversion by molar mass, not a printed value.

What was measured:
[1] = system: S. pyogenes (Erythromycin and Tetracycline resistant strains); assay: MIC/MBC assay (2-fold microdilution, CAMHB with […] laked horse blood); type: cell-based; details: Streptococcus pyogenes
Protocol: (§1) Tables 26 and 27 show an assay whose setup is same as what was used for screening S. aureus and P. aeruginosa (i.e. 2-fold microdilution). The 20 strains of S. pyogenes assayed were selected from the two rounds of antibiotic screening to identify Erythromycin and Tetracycline resistant strains. […] For this feasibility study, AB-101 Lot 1 and Lot 2 was used. P. aeruginosa ATCC 27853 was tested as a positive control for AB-101 activity.

[2] = system: cells; details: Chen, Planta Med. 60 (1994), cited from earlier work; for healing effects: Ecuadorian sap; for effect on cell proliferation: compounds obtained through extraction
[3] = system: MRSA strains (Mupirocin-resistant and Mupirocin-susceptible); assay: In vitro MIC/MBC assay (2-fold microdilution), S. aureus strain panel; type: cell-based, Staphylococcus aureus
Protocol: (§2) AB-101 was tested against an extensive variety of bacterial strains, including Mupirocin-resistant MRSA, Mupirocin-resistant MSSA, Mupirocin-susceptible MSSA, Mupirocin-susceptible MRSA, and other skin-related pathogens.
(§3) Measures included the minimum inhibitory concentration (MIC) which is the lowest concentration of AB-101 that prevents visible growth of the bacterium or pathogen, and minimum bactericidal concentration (MBC) which is the lowest concentration of an antibacterial agent required to kill a bacterium.
(§4) AB-101 Lots 01, 02 and a purified extract of taspine for MIC are compared. […] Taspine may have additional synergistic benefits to be included in the whole extract in the final product for the effective treatment of a bacterial colonization or primary or secondary bacterial infection of an underlying skin disorder.
as §4, with “taspine for MBC are compared.” for “taspine for MIC are compared.”, “treatment of bacterial colonization” for “treatment of a bacterial colonization”
as §1

[4] = system: MSSA strains (Mupirocin-resistant and Mupirocin-susceptible; QC ATCC 29213); assay: as above; type: cell-based, Staphylococcus aureus; details: MSSA
Protocol: as §2, §3, §4
as §4, with “taspine for MBC are compared.” for “taspine for MIC are compared.”, “treatment of bacterial colonization” for “treatment of a bacterial colonization”
as §1

[5] = highest taspine concentration tested 10 μg/mL (50% relative to AB-101)

Compound: CN[C@H](CC(C)C)C(=O)N[C@H]1C(=O)N[C@@H](CC(N)=O)C(=O)N[C@H]2C(=O)N[C@H]3C(=O)N[C@H](C(=O)N[C@H](C(=O)O)c4cc(O)cc(O)c4-c4cc3ccc4O)[C@H](O)c3ccc(c(Cl)c3)Oc3cc2cc(c3O[C@@H]2O[C@H](CO)[C@@H](O)[C@H](O)[C@H]2O[C@H]2C[C@](C)(N)[C@H](O)[C@H](C)O2)Oc2ccc(cc2Cl)[C@H]1O [Vancomycin]
- MIC ([1]; S. pyogenes strain 1744264): 0.5 µg/mL (≈ 0.345 µM)
- MIC ([1]; S. pyogenes strain 1744265): 8 µg/mL (≈ 5.52 µM)
- MIC ([1]; S. pyogenes strain 1744271): 0.5 µg/mL (≈ 0.345 µM)
- MIC ([1]; S. pyogenes strain 1744272): 1 µg/mL (≈ 0.69 µM)
- MIC ([1]; S. pyogenes strain 1744275): 0.25 to 0.5 µg/mL (≈ 0.173 to 0.345 µM)
- MIC ([1]; S. pyogenes strain 1744277): 4 µg/mL (≈ 2.76 µM)
- MIC ([1]; S. pyogenes strain 1744285): 0.5 µg/mL (≈ 0.345 µM)
- MIC ([1]; S. pyogenes strain 2065754): 0.5 µg/mL (≈ 0.345 µM)
- MIC ([1]; S. pyogenes strain 2065755): 0.5 µg/mL (≈ 0.345 µM)
- MIC ([1]; S. pyogenes strain 2065756): 0.5 µg/mL (≈ 0.345 µM)
- MIC ([1]; S. pyogenes strain 2065757): 0.5 µg/mL (≈ 0.345 µM)
- MIC ([1]; S. pyogenes strain 2065759): 0.5 µg/mL (≈ 0.345 µM)
- MIC ([1]; S. pyogenes strain 2065760): 0.5 µg/mL (≈ 0.345 µM)
- MIC ([1]; S. pyogenes strain 2065761): 0.5 µg/mL (≈ 0.345 µM)
- MIC ([1]; S. pyogenes strain 2065762): 0.5 µg/mL (≈ 0.345 µM)
- MIC ([1]; S. pyogenes strain 2065763): 0.5 µg/mL (≈ 0.345 µM)
- MIC ([1]; S. pyogenes strain 2065765): 2 to 4 µg/mL (≈ 1.38 to 2.76 µM)
- MIC ([1]; S. pyogenes strain 20658748): 0.25 to 0.5 µg/mL (≈ 0.173 to 0.345 µM)
- MIC ([1]; S. pyogenes strain 20658749): 0.5 µg/mL (≈ 0.345 µM)
- MIC ([1]; S. pyogenes strain 20658750): 0.5 µg/mL (≈ 0.345 µM)

Compound: COc1ccc([C@H]2Oc3c(OC)cc(CCCO)cc3[C@@H]2CO)cc1OC [dimethylcedrusin]
- healing effects [2]: little healing effects

Compound: Oc1cc(O)c2c(c1)O[C@H](c1cc(O)c(O)c(O)c1)[C@@H](O)C2 [gallocatechin]
- effect on cell proliferation [2]: slightly stimulating

Compound: COc1ccc2c(=O)oc3c(OC)cc(CCN(C)C)c4c(=O)oc1c2c34 [taspine]
- activity by MBC [3]: does not have activity
- activity by MIC [3, 5]: does not have activity
- activity by MBC [4]: does not have activity
- activity by MIC [4, 5]: does not have activity
- healing effects [2]: little healing effects

Compound: epicatechin
- effect on cell proliferation [2]: little effect

Compound: epigallocatechin [epigalocatechin]
- effect on cell proliferation [2]: slightly stimulating
